Experimental data published in ChEMBL document CHEMBL3612012, “Identification of orally-bioavailable antagonists of the TRPV4 ion-channel” (Bioorg Med Chem Lett, 2015).

Assays:
[1] = molecular target: Sodium-dependent noradrenaline transporter (Homo sapiens) (UniProt P23975); assay: Binding affinity to human NE transporter assessed as inhibition of control specific binding at 10 uM
[2] = molecular target: T1, Transient receptor potential cation channel subfamily V member 4 (Homo sapiens, UniProt Q9HBA0); assay: Antagonist activity at human TRPV4 receptor expressed in HEK293 cells assessed as inhibition of EC80 of 4alpha-PDD-stimulated calcium flux after 10 mins; assay type: cell-based
T1 sequence (Q9HBA0 whole entry): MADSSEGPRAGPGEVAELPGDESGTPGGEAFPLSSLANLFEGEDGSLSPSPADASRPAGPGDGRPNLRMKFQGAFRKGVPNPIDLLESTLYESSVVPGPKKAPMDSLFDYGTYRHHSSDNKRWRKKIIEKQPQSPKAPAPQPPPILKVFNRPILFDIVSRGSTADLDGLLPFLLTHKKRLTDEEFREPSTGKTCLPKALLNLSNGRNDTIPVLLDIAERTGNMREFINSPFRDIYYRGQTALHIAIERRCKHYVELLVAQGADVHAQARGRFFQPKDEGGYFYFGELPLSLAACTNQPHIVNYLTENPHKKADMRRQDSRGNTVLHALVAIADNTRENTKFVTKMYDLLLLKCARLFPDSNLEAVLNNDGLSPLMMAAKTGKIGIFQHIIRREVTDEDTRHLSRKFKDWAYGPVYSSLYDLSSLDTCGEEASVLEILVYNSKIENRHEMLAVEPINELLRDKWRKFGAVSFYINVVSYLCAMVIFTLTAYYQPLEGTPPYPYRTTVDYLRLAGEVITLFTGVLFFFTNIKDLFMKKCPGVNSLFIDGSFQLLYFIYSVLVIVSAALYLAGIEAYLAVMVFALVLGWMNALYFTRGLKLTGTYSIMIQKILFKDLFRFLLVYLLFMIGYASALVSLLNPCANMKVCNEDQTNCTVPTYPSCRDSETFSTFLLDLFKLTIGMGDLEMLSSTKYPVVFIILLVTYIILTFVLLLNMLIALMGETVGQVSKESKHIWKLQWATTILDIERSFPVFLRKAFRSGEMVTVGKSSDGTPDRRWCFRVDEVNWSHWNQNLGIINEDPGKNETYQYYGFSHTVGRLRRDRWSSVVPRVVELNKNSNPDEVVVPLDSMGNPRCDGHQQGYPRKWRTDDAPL

[3] = molecular target: T2, Transient receptor potential cation channel subfamily V member 4 (Rattus norvegicus, UniProt Q9ERZ8); assay: Antagonist activity at rat TRPV4 receptor expressed in HEK293 cells assessed as inhibition of EC80 of 4alpha-PDD-stimulated calcium flux after 10 mins; assay type: cell-based
T2 sequence (Q9ERZ8 whole entry): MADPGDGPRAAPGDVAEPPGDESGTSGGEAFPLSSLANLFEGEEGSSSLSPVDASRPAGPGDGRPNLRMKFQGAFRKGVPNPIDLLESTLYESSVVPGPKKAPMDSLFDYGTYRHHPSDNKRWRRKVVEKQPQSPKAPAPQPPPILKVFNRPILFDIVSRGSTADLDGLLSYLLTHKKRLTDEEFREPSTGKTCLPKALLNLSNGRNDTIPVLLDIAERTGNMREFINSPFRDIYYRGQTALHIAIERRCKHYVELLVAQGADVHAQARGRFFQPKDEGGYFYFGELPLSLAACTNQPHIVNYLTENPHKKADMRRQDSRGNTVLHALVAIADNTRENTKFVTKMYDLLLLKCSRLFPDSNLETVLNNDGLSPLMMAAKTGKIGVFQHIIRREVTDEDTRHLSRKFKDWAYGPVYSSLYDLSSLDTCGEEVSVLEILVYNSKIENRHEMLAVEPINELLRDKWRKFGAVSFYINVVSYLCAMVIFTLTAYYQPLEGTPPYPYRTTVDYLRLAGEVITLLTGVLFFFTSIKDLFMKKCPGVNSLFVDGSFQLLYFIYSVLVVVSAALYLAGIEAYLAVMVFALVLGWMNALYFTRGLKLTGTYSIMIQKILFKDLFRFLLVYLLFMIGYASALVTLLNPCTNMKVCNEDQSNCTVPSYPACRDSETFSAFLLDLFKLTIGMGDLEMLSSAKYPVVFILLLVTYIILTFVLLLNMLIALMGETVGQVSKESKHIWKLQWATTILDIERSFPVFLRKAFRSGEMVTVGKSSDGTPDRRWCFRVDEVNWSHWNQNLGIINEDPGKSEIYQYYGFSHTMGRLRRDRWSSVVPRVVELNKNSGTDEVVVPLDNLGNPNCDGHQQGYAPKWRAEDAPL

[4] = Clearance in Wistar rat at 1.40 mg/kg, iv; assay type: ADME, organism-based; settings: in vivo, 1.4 mg/kg
[5] = Cmax in Wistar rat at 29.73 mg/kg, po; assay type: ADME, organism-based; parameters: dose 29.73 mg/kg, route oral; settings: in vivo
[6] = Oral bioavailability in Wistar rat at 29.73 mg/kg; assay type: ADME, organism-based; settings: in vivo
[7] = molecular target: T1, Transient receptor potential cation channel subfamily V member 4; assay: Antagonist activity at human TRPV4 expressed in HEK293 cells assessed as inhibition of 20% hypotonic solution-induced Ca2+ influx; assay type: cell-based
[8] = molecular target: T2, Transient receptor potential cation channel subfamily V member 4; assay: Antagonist activity at rat TRPV4 receptor expressed in HEK293 cells assessed as inhibition of 4alpha-PDD-stimulated calcium flux after 10 mins; assay type: cell-based
[9] = molecular target: Transient receptor potential cation channel subfamily V member 4 (Mus musculus, UniProt Q9EPK8); assay: Antagonist activity at mouse TRPV4 receptor expressed in HEK293 cells assessed as inhibition of 4alpha-PDD-stimulated calcium flux after 10 mins; assay type: cell-based
[10] = molecular target: Transient receptor potential cation channel subfamily V member 1 (Homo sapiens, UniProt Q8NER1); assay: Antagonist activity at human TRPV1 receptor expressed in HEK293 cells assessed as inhibition of capsaicin-stimulated calcium flux after 10 mins; assay type: cell-based
[11] = AUC (infinity) in Wistar rat at 32.50 mg/kg, ip; assay type: ADME, organism-based; parameters: dose 32.5 mg/kg, route intraperitoneal, time infinity; settings: in vivo, 32.5 mg/kg
[12] = molecular target: Adenosine receptor A2a (Homo sapiens) (UniProt P29274); assay: Binding affinity to human adenosine A2A receptor assessed as inhibition of control specific binding at 10 uM
[13] = molecular target: Beta-1 adrenergic receptor (Homo sapiens) (UniProt P08588); assay: Binding affinity to human beta1 adrenergic receptor assessed as inhibition of control specific binding at 10 uM
Chain of Beta-1 adrenergic receptor (Homo sapiens) (P08588 whole entry, looked up): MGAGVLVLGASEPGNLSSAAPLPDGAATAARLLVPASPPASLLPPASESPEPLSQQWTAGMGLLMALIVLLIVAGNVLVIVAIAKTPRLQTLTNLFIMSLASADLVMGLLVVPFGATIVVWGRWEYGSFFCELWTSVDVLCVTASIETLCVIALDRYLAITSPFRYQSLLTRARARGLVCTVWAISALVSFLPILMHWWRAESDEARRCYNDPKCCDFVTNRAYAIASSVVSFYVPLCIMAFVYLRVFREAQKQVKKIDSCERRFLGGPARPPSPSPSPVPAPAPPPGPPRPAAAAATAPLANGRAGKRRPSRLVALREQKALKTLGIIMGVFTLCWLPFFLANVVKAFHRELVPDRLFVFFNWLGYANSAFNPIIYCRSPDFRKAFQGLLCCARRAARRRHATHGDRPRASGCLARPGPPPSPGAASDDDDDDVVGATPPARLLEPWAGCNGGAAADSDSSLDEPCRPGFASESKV

[14] = molecular target: Cholecystokinin receptor type A (Homo sapiens) (UniProt P32238); assay: Binding affinity to human CCKA receptor assessed as inhibition of control specific binding at 10 uM
Chain of Cholecystokinin receptor type A (Homo sapiens) (P32238 whole entry): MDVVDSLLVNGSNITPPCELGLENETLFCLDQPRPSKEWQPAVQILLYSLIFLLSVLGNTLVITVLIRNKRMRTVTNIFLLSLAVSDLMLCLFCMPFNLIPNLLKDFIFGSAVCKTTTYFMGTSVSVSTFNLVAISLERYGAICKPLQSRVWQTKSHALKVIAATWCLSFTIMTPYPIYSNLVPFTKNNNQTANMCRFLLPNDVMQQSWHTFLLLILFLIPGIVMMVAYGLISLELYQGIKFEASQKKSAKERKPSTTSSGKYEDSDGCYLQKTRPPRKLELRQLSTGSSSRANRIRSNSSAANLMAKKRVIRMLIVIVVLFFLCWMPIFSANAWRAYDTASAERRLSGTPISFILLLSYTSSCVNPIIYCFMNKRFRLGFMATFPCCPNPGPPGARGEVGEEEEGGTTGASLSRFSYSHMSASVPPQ

[15] = molecular target: D(1A) dopamine receptor (Homo sapiens) (UniProt P21728); assay: Binding affinity to human D1 receptor assessed as inhibition of control specific binding at 10 uM
[16] = molecular target: Endothelin-1 receptor (Homo sapiens) (UniProt P25101); assay: Binding affinity to human ETA receptor assessed as inhibition of control specific binding at 10 uM
[17] = molecular target: GABA-A receptor; agonist GABA site (Homo sapiens) (UniProt P14867+P47870+P28472+P48169+P34903+P18505+P47869+P31644+Q16445); assay: Binding affinity to GABAA receptor (unknown origin) assessed as inhibition of control specific binding at 10 uM; assay type: protein-complex assay
[18] = molecular target: C-C chemokine receptor type 1 (Homo sapiens) (UniProt P32246); assay: Binding affinity to human CCR1 receptor assessed as inhibition of control specific binding at 10 uM
[19] = molecular target: Histamine H2 receptor (Homo sapiens) (UniProt P25021); assay: Binding affinity to human H2 receptor assessed as inhibition of control specific binding at 10 uM
[20] = molecular target: Melanocortin receptor 4 (Homo sapiens) (UniProt P32245); assay: Binding affinity to human MC4 receptor assessed as inhibition of control specific binding at 10 uM
Chain of Melanocortin receptor 4 (Homo sapiens) (P32245 whole entry): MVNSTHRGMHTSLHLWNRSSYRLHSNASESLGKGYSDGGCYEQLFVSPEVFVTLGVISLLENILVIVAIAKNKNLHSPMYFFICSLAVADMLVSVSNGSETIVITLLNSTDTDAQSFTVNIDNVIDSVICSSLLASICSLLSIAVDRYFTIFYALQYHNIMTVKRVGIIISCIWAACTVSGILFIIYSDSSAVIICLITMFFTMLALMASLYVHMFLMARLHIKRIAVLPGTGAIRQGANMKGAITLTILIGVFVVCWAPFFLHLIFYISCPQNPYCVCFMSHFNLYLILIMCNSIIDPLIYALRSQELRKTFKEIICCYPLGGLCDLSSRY

[21] = molecular target: Muscarinic acetylcholine receptor M2 (Homo sapiens) (UniProt P08172); assay: Binding affinity to human M2 receptor assessed as inhibition of control specific binding at 10 uM
[22] = molecular target: Muscarinic acetylcholine receptor M3 (Homo sapiens) (UniProt P20309); assay: Binding affinity to human M3 receptor assessed as inhibition of control specific binding at 10 uM
[23] = molecular target: Neuromedin-K receptor (Homo sapiens) (UniProt P29371); assay: Binding affinity to human NK3 receptor assessed as inhibition of control specific binding at 10 uM
Chain of Neuromedin-K receptor (Homo sapiens) (P29371 whole entry): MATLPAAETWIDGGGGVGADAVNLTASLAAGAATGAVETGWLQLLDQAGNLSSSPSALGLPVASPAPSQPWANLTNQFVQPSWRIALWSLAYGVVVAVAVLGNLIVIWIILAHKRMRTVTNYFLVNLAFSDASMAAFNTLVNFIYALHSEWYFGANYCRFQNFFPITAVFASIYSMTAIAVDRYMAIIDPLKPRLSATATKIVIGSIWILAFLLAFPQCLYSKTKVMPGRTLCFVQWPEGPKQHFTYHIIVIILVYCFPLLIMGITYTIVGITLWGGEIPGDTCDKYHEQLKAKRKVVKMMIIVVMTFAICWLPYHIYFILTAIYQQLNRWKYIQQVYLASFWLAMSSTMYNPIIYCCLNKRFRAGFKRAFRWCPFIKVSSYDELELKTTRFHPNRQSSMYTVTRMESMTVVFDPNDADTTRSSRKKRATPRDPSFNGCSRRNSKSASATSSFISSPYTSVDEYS

[24] = molecular target: Neuropeptide Y receptor type 1 (Homo sapiens) (UniProt P25929); assay: Binding affinity to human Y1 receptor assessed as inhibition of control specific binding at 10 uM
[25] = molecular target: Neurotensin receptor type 1 (Homo sapiens) (UniProt P30989); assay: Binding affinity to human NT1 receptor assessed as inhibition of control specific binding at 10 uM
[26] = molecular target: Delta-type opioid receptor (Homo sapiens) (UniProt P41143); assay: Binding affinity to human detla2 opioid receptor assessed as inhibition of control specific binding at 10 uM
Chain of Delta-type opioid receptor (Homo sapiens) (P41143 whole entry): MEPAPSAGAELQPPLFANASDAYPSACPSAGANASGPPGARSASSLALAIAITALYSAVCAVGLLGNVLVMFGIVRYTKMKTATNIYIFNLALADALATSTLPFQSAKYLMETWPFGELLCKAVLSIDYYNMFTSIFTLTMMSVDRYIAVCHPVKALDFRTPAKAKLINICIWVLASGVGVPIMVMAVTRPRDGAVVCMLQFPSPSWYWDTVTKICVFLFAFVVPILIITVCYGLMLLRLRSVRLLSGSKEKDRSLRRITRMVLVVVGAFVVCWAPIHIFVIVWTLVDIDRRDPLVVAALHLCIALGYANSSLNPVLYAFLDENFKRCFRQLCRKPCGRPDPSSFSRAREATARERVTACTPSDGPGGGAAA

[27] = molecular target: Kappa-type opioid receptor (Homo sapiens) (UniProt P41145); assay: Binding affinity to human kappa opioid receptor assessed as inhibition of control specific binding at 10 uM
[28] = molecular target: Nociceptin receptor (Homo sapiens) (UniProt P41146); assay: Binding affinity to human ORL1 receptor assessed as inhibition of control specific binding at 10 uM
Chain of Nociceptin receptor (Homo sapiens) (P41146 whole entry): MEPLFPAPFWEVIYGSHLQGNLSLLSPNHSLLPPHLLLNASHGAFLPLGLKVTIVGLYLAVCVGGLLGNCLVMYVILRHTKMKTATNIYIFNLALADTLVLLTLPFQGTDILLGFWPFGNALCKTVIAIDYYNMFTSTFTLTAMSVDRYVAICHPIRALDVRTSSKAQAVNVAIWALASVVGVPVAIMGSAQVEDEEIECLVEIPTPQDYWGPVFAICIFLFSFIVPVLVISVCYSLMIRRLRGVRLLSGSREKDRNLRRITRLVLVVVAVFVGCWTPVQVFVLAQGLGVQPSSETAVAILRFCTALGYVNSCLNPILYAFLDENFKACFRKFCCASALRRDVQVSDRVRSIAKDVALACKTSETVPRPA

[29] = molecular target: 5-hydroxytryptamine receptor 1B (Homo sapiens) (UniProt P28222); assay: Binding affinity to human 5-HT1B receptor assessed as inhibition of control specific binding at 10 uM
[30] = molecular target: 5-hydroxytryptamine receptor 5A (Homo sapiens) (UniProt P47898); assay: Binding affinity to human 5-HT5A receptor assessed as inhibition of control specific binding at 10 uM
Homo sapiens [31] = species: Homo sapiens; assay: Binding affinity to SST receptor (unknown origin) assessed as inhibition of control specific binding at 10 uM
[32] = molecular target: Vasopressin V1a receptor (Homo sapiens) (UniProt P37288); assay: Binding affinity to human V1a receptor assessed as inhibition of control specific binding at 10 uM
Homo sapiens [33] = species: Homo sapiens; assay: Binding affinity to verapamil site of calcium channel L (unknown origin) assessed as inhibition of control specific binding at 10 uM
[34] = molecular target: potassium channel (voltage-gated potassium channel family) (Homo sapiens, UniProt O43525+O43526+O95259+P16389+P17658+P22001+P22459+P22460+P48547+P51787+P56696+Q03721+Q09470+Q12809+Q14003+Q14721+Q16322+Q6PIU1+Q8NCM2+Q8TAE7+Q8TDN1+Q8TDN2+Q92953+Q96KK3+Q96L42+Q96PR1+Q96RP8+Q9BQ31+Q9H252+Q9H3M0+Q9NR82+Q9NS40+Q9NSA2+Q9NZV8+Q9UIX4+Q9UJ96+Q9UK17+Q9ULD8+Q9ULS6+Q9UQ05); assay: Binding affinity to potassium channel (unknown origin) assessed as inhibition of control specific binding at 10 uM; assay type: protein assay

Chain of Sodium-dependent noradrenaline transporter (Homo sapiens) (P23975 whole entry): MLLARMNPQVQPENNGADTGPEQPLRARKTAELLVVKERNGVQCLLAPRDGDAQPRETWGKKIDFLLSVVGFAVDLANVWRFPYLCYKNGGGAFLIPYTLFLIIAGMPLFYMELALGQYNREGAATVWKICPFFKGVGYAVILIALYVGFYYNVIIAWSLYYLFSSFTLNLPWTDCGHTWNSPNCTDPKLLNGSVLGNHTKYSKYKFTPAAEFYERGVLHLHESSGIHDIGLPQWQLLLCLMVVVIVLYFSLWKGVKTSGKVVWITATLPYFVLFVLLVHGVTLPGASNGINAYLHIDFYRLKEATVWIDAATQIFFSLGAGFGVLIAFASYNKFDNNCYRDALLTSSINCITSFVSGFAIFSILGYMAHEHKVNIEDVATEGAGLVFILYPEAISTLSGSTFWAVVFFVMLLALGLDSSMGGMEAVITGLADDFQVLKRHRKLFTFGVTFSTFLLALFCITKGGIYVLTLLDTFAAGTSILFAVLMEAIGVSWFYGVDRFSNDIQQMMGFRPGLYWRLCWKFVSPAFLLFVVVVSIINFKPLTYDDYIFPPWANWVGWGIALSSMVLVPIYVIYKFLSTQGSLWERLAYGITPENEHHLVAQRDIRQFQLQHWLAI

inhibition [1]: 4%
IC50 [2]: 420 nM
IC50 [3]: 660 nM
clearance [4]: 23.7 mL/min/kg
Cmax [5]: 3820 ng/mL
bioavailability [6]: 46.8%
IC50 [7]: 570 nM
IC50 [8]: 120 nM
IC50 [9]: 57 nM
IC50 [10]: > 10000 nM
AUC(0-inf) [11]: 16500 ng·h/mL
inhibition [12]: -7%
inhibition [13]: 4%
inhibition [14]: 3%
inhibition [15]: 1%
inhibition [16]: -4%
inhibition [17]: 3%
inhibition [18]: -5%
inhibition [19]: -4%
inhibition [20]: -8%
inhibition [21]: 6%
inhibition [22]: 21%
inhibition [23]: 2%
inhibition [24]: -8%
inhibition [25]: -6%
inhibition [26]: 6%
inhibition [27]: 3%
inhibition [28]: -2%
inhibition [29]: -2%
inhibition [30]: 0%
inhibition (Homo sapiens [31]): -1%
inhibition [32]: 1%
inhibition (Homo sapiens [33]): 7%
inhibition at 10 µM [34]: -25%
Structure (SMILES): CC(C)N1CCN(S(=O)(=O)c2ccc(NC(=O)c3ccc(C(F)(F)F)cc3[N+](=O)[O-])cc2)CC1
